# How the values were obtained:
# Test in all cases: relative viability (nuclei count vs DMSO), 5 days (fraction); higher = more cells survive
# [1] = compound: CC(C)N(CCCNC(=O)Nc1ccc(C(C)(C)C)cc1)C[C@H]1O[C@@H](n2ccc3c(N)ncnc32)[C@H](O)[C@@H]1O + Cc1cc(Nc2cc(N3CCN(C)CC3)nc(Sc3ccc(NC(=O)C4CC4)cc3)n2)n[nH]1 [Tozasertib] (partner 0.1 µM)
# In short: (§1)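 Relative viability divides the nuclei count in treated wells by that in vehicle wells. Lung cancer cell lines were seeded in 1536-well plates, dosed by pin tool the next day, and fixed and stained after 5 days in one step with final 0.05% Triton X-100, 1% formaldehyde and 1 ug/ml Hoechst. Dosing was a single drug or a fixed anchor-drug dose plus five library-drug doses (not always all listed) in √10 steps, and values are medians of duplicate plates imaged at 4×.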
# [2] = compound: CC(C)N(CCCNC(=O)Nc1ccc(C(C)(C)C)cc1)C[C@H]1O[C@@H](n2ccc3c(N)ncnc32)[C@H](O)[C@@H]1O + O=C(c1cc(Cc2n[nH]c(=O)c3ccccc23)ccc1F)N1CCN(C(=O)C2CC2)CC1 [Olaparib] (partner 8 µM)
# In short: as §1
# Shikonin + Foretinib = compound: CC(C)=CC[C@@H](O)C1=CC(=O)c2c(O)ccc(O)c2C1=O [Shikonin] + COc1cc2c(Oc3ccc(NC(=O)C4(C(=O)Nc5ccc(F)cc5)CC4)cc3F)ccnc2cc1OCCCN1CCOCC1 [Foretinib] (partner 0.25 µM)
# In short: as §1
# Shikonin + Pictilisib = compound: CC(C)=CC[C@@H](O)C1=CC(=O)c2c(O)ccc(O)c2C1=O [Shikonin] + CS(=O)(=O)N1CCN(Cc2cc3nc(-c4cccc5[nH]ncc45)nc(N4CCOCC4)c3s2)CC1 [Pictilisib] (partner 1 µM)
# In short: as §1
Cell Line,relative viability ([1]; first compound 0.08 µM),relative viability ([1]; first compound 0.253 µM),relative viability ([1]; first compound 0.8 µM),relative viability ([1]; first compound 2.53 µM),relative viability ([1]; first compound 8 µM),relative viability ([2]; first compound 0.08 µM),relative viability ([2]; first compound 0.253 µM),relative viability ([2]; first compound 0.8 µM),relative viability ([2]; first compound 2.53 µM),relative viability ([2]; first compound 8 µM),relative viability (Shikonin + Foretinib; first compound 0.01 µM),relative viability (Shikonin + Foretinib; first compound 0.1 µM),relative viability (Shikonin + Foretinib; first compound 0.3162 µM),relative viability (Shikonin + Foretinib; first compound 1 µM),relative viability (Shikonin + Pictilisib; first compound 0.01 µM),relative viability (Shikonin + Pictilisib; first compound 0.1 µM),relative viability (Shikonin + Pictilisib; first compound 0.3162 µM),relative viability (Shikonin + Pictilisib; first compound 1 µM)
NCI-H1648,0.445,0.425,0.534,0.387,0.495,0.866,1,1.03,0.909,0.826,–,–,–,–,–,–,–,–
SK-MES-1,0.855,0.959,0.962,0.92,0.872,0.83,0.811,0.734,0.713,0.662,1.01,1.2,0.965,0.939,0.352,0.392,0.413,0.368
NCI-H520,0.453,0.512,–,0.416,0.437,0.303,0.389,0.356,0.331,0.333,0.801,0.759,0.8,0.696,–,0.393,0.263,0.348
HCC-366,0.0971,0.163,0.157,0.0768,0.103,0.336,0.428,0.328,0.292,0.281,0.928,1.2,0.979,0.939,0.164,0.137,0.165,0.127
201T,0.871,0.896,0.974,0.898,0.902,0.83,0.891,–,0.809,0.797,1.07,1.15,1.19,1.25,0.621,0.754,0.669,0.796
HCC-827,0.423,0.425,–,0.436,0.412,0.63,0.706,0.562,0.616,0.488,0.976,1.15,1.06,1.08,1.12,0.786,1.03,0.871
NCI-H661,0.365,0.345,0.362,0.35,0.37,0.85,0.758,0.795,0.786,0.729,0.987,1.08,1.09,0.976,0.372,0.427,0.39,0.38
NCI-H2085,0.746,0.78,0.797,0.854,0.716,0.749,0.834,0.873,0.867,0.763,0.851,1.06,0.996,0.753,0.41,0.47,0.424,0.411
NCI-H647,0.261,0.318,–,0.416,0.267,0.439,0.507,0.508,0.587,0.543,1.29,1.46,1.51,1.31,0.458,0.552,0.441,0.573
SW 1573,0.201,0.151,0.201,0.193,0.163,0.464,–,0.517,0.441,0.53,0.929,0.894,1.13,0.765,0.616,0.604,0.558,0.532
A-427,0.2,0.208,0.193,0.204,0.206,0.71,0.779,0.613,0.771,0.702,1.16,1.26,1.21,1.16,0.691,0.915,0.643,0.765
NCI-H460,0.402,0.435,0.346,0.488,0.453,0.391,0.433,0.388,0.33,0.345,1.09,0.797,1.12,0.994,0.357,0.441,0.357,0.375
NCI-H1703,–,–,–,–,–,0.52,0.446,–,0.571,0.349,0.361,0.401,0.319,0.329,0.26,0.238,0.206,0.205
NCI-H1792,–,–,–,–,–,0.434,–,0.365,0.374,0.399,–,–,–,–,0.306,0.206,0.293,0.308
Calu-6,–,–,–,–,–,0.521,0.53,0.547,0.552,0.57,0.962,0.904,1.02,0.885,1.15,1.03,0.921,0.756
SK-LU-1,0.35,0.41,0.352,0.49,0.346,0.424,0.448,0.516,0.552,0.469,0.869,0.907,0.863,0.788,0.511,0.541,0.442,0.616
EMC-BAC-2,0.287,0.314,0.285,0.275,0.275,0.486,0.513,0.472,0.389,0.435,0.993,1.05,1.16,0.972,0.541,0.536,0.593,0.654
LK-2,0.159,0.178,0.204,0.195,0.17,0.713,0.544,0.771,0.632,0.82,1.15,1.31,1.85,1.16,0.531,0.546,0.619,0.476

Cell Line,relative viability ([1]; first compound 0.08 µM),relative viability ([1]; first compound 0.253 µM),relative viability ([1]; first compound 0.8 µM),relative viability ([1]; first compound 2.53 µM),relative viability ([1]; first compound 8 µM),relative viability ([2]; first compound 0.08 µM),relative viability ([2]; first compound 0.253 µM),relative viability ([2]; first compound 0.8 µM),relative viability ([2]; first compound 2.53 µM),relative viability ([2]; first compound 8 µM),relative viability (Shikonin + Foretinib; first compound 0.01 µM),relative viability (Shikonin + Foretinib; first compound 0.1 µM),relative viability (Shikonin + Foretinib; first compound 0.3162 µM),relative viability (Shikonin + Foretinib; first compound 1 µM),relative viability (Shikonin + Pictilisib; first compound 0.01 µM),relative viability (Shikonin + Pictilisib; first compound 0.1 µM),relative viability (Shikonin + Pictilisib; first compound 0.3162 µM),relative viability (Shikonin + Pictilisib; first compound 1 µM)
NCI-H2228,0.261,0.314,0.264,0.277,0.23,0.879,0.712,0.427,0.601,0.615,0.824,0.619,0.895,0.806,0.344,0.438,0.465,0.252
NCI-H322M,0.484,0.434,0.493,0.499,0.499,0.741,0.797,0.72,0.765,0.625,0.996,1.37,1.06,0.99,0.498,0.526,0.496,0.504
NCI-H1975,0.696,0.765,0.741,0.597,0.569,0.745,0.82,0.68,0.649,0.538,1,0.921,0.947,0.973,0.287,0.283,0.268,0.294
NCI-H1944,0.253,0.261,0.251,0.239,0.246,0.416,0.409,0.413,0.41,0.403,0.94,0.954,0.989,0.94,0.352,0.379,0.353,0.392
LU99A,0.279,0.316,0.276,0.237,0.261,0.322,0.252,0.264,0.275,0.237,0.854,0.815,0.797,0.744,0.309,0.3,0.337,0.303
NCI-H1993,0.564,–,–,0.624,0.591,1.06,–,1.07,1.01,1.01,0.782,0.696,0.767,0.715,–,0.84,0.803,0.792
NCI-H2405,0.706,0.82,0.783,0.822,0.703,0.854,0.906,0.755,0.961,0.842,1.06,1.08,1.15,1.03,0.442,0.401,0.553,0.474
HCC-44,0.99,1.11,0.869,1.01,1.04,1,1.03,0.981,1,0.972,–,–,–,–,0.663,0.835,0.564,0.728
NCI-H1299,–,–,–,–,–,1.03,0.926,1,0.96,0.923,1.08,1.15,1.09,1.09,0.76,1.08,0.711,0.429
SW 900,0.683,0.696,–,0.543,0.438,0.783,0.875,–,0.798,0.772,1.04,0.987,0.915,0.801,–,–,–,–
NCI-H1563,–,–,–,–,–,–,–,–,–,–,0.935,0.848,1.06,0.902,0.629,0.719,0.675,0.566
A549,–,–,–,–,–,0.409,0.32,0.251,0.535,0.317,1.05,1.03,1.16,1.11,0.746,0.569,0.644,0.488
NCI-H2342,0.57,0.559,0.415,0.472,0.56,0.4,0.463,0.419,0.431,0.444,1,1.12,1.03,1.03,–,–,–,–
NCI-H1623,0.426,0.452,0.414,0.408,0.45,–,–,–,–,–,0.874,0.866,1.06,0.917,–,–,–,–
NCI-H522,0.538,0.553,0.542,0.588,0.615,0.754,0.636,0.583,0.623,0.732,–,–,–,–,–,–,–,–
IA-LM,–,–,–,–,–,0.776,0.956,0.937,0.931,0.686,1.14,1.42,1.32,1.15,0.363,0.364,0.337,0.305
EBC-1,–,–,–,–,–,0.766,0.746,0.76,0.85,0.657,0.0907,0.107,0.11,0.112,0.331,0.353,0.369,0.34

# From the supplement of paper PMC10307832
